These results are taken from patent US8829014B2, “Thiazole and thiophene analogues, and their use in treating autoimmune diseases and cancers” (Board of Supervisors of Louisiana State University and …, priority 2006, dated 2014).

Structures are written as SMILES.

Experiment [1] concerns AP-1. In words: PMA-induced AP-1 luciferase expression in HEK cells. The format is cell-based. Conditions: luciferase in HEK/AP-1 cells, as described in Example 398; for inhibition at 1 µM: AP1, 1 uM.
The test system of experiment [2] is NF-κB. As to the kind of experiment: TNF-α-induced NF-κB-dependent luciferase expression in HEK cells. Format: cell-based. Particulars: luciferase in HEK/NF-κB cells, as described in Example 398; for inhibition at 1 µM: Homo sapiens, HEK293, 1 uM, read-out: NFkB inhibition @ 1 uM.
Experiment [3] has as its system carageenan-induced edema. In words: Carrageenan-induced rat paw edema test (anti-inflammatory activity). The format is in vivo, Sprague-Dawley rats. The method in brief:
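Edema was raised by sub-plantar injection of 1% carrageenan into the right hind paw, 1 h after dosing 18 h-fasted male/female Sprague-Dawley rats (150-250 g) with 50 mg/kg p.o. in 0.1% CMC. Swelling was measured by displacement 3 h later and expressed as % protection against saline control.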
(In general: Carrageenan injected into the paw causes an acute inflammation.)

Where [4] appears, read: Rattus norvegicus, po, 3 h, rat paw edema, 50 mg/kg, reading 3 hours after carrageenan; [(Control−Test)/Control]×100%; read-out: % Protection P.
Setting [5] is: rat paw edema, 50 mg/kg, reading 3 hours after carrageenan; [(Control−Test)/Control]×100%.

In general, inhibition refers to the change of the read-out against control, counted positive when it falls.

Consider `COc1ccc(C(=O)c2sc(Nc3ccccc3)nc2NC(=O)Nc2ccc(F)cc2)cc1` [Example 117, 1-(4-Fluoro-phenyl)-3-[5-(4-methoxy-benzoyl)-2-phenylamino-thiazol-4-yl]-urea], for which the results for the inhibition at 1 µM in experiment [1] and in experiment [2] were 51% and 22.1%, respectively. Besides, in experiment [3] (rat paw edema, 50 mg/kg, reading 3 hours after carrageenan; [(Control−Test)/Control]×100%; 50 mg/kg), the “% Protection P” value is on record as 58.62%.
Take `CNc1nc(C)c(C(=O)c2sc(NC)nc2C)s1` [Example 118, Bis-(4-methyl-2-methylamino-thiazole-5-yl)-methanone]: the inhibition at 1 µM in experiment [1] turned out to be 33.4%; in experiment [2], 8.84%. In experiment [3] (setting [4]), the inhibition in vivo at 50 mg/kg was 40.9%.
The corresponding values for `Cc1nc(Nc2ccccc2)sc1C(=O)c1sc(Nc2ccccc2)nc1C` [Example 119, Bis-(4-methyl-2-phenylamino-thiazole-5-yl)-methanone] are 26%, 8.39% and 45.5%.
`Cc1nc(Nc2ccc(Cl)cc2)sc1C(=O)c1sc(Nc2ccc(Cl)cc2)nc1C` [Example 120, Bis-[2-(4-Chloro-phenylamino)-4-methyl-thiazole-5-yl]-methanone]: the inhibition at 1 µM in experiment [1] came out at 76.2%; in experiment [2], 20.3%. For the same molecule, the inhibition in vivo at 50 mg/kg in experiment [3] (setting [4]) was 64.6%.
The corresponding values for `CCOC(=O)Nc1nc(C)c(C(=O)c2sc(NC(=O)OCC)nc2C)s1` [Example 124, Diethyl[carbonyl-bis(4-methyl-1,3-thiazole-5,2-diyl)]biscarbamate] are 71.6%, 20.1% and 65.7%.
The corresponding values for `CNc1nc(-c2ccccc2)c(C(=O)c2sc(NC)nc2-c2ccccc2)s1` [Example 125, Bis-(2-methylamino-4-Phenyl-thiazole-5-yl)-methanone] are 23.8%, 27.1% and 23.2%.
On the same counts, the results for `COC(=O)Nc1nc(Cc2ccccc2)c(C(=O)c2sc(NC(=O)OC)nc2Cc2ccccc2)s1` [Example 137, Dimethyl[carbonyl-bis(4-benzyl-1,3-thiazole-5,2-diyl)]biscarbamate] are 51.3%, 7.69% and 47.2%.
`CCOC(=O)Nc1nc(Cc2ccccc2)c(C(=O)c2sc(NC(=O)OCC)nc2Cc2ccccc2)s1` [Example 138, Diethyl[carbonyl-bis(4-benzyl-1,3-thiazole-5,2-diyl)]biscarbamate]: the inhibition at 1 µM was 83.6% in experiment [1] and 55.6% in experiment [2]. Besides, the inhibition in vivo at 50 mg/kg in experiment [3] (setting [4]) was found to be 88.9%.
The corresponding values for `O=C(CCl)Nc1ccccc1C(=O)O` [Example 139, 2-(2-Chloroacetylamino) benzoic acid] are 74.4%, 62.6% and 69.6%.
Consider `O=c1c2ccccc2nc(-c2cc(-c3ccccc3)c(N3CCOCC3)s2)n1-c1ccccc1` [Example 272, 2-(5-Morpholin-4-yl-4-phenyl-thiophene-2-yl)-3-phenyl-3H-quinazolin-4-one], for which the inhibition at 1 µM in experiment [1] is 11%; in experiment [2], -2%. In addition, the inhibition in vivo at 50 mg/kg in experiment [3] (setting [4]) is 30%.
The corresponding values for `O=c1c2ccccc2nc(-c2cc(-c3ccc(Cl)cc3)c(N3CCOCC3)s2)n1-c1ccccc1` [Example 273, 2-[4-(4-Chloro-phenyl)-5-morpholin-4-yl-thiophen-2-yl]-3-phenyl-3H-quinazolin-4-one] are -17%, -35% and 0%.
On the same counts, the results for `CS(=O)(=O)c1ccc(-c2cc(-c3nc4ccccc4c(=O)n3-c3ccccc3)sc2N2CCOCC2)cc1` [Example 275, 2-[4-(4-Methanesulfonyl-phenyl)-5-morpholin-4-yl-thiophen-2-yl]-3-phenyl-3H-quinazolin-4-one] are 28%, 9% and 25%.
Regarding `CSc1ccc(-c2cc(-c3nc4ccccc4c(=O)n3-c3ccccc3C)sc2N2CCOCC2)cc1` [Example 282, 2-[4-(4-Methylsulfanylphenyl)-5-morpholin-4-yl-thiophen-2-yl]-3-0-tolyl-3H-quinazolin-4-one], the “AP-1 inhibition @ 1 uM” value in experiment [1] was −18. In addition, the “NFkB inhibition @ 1 uM” value in experiment [2] came to 53. Also, the “% Protection P” value in experiment [3] (setting [5]) is reported as 51%.
Consider `CC(=O)Nc1ccc(-c2cc(-c3nc4ccccc4c(=O)n3-c3cccc(C)c3)sc2N2CCOCC2)cc1` [Example 286, N-{4-[2-Morpholin-4-yl-5-(4-oxo-3-m-tolyl-3-,4-dihydro-quinazolin-2-yl)-thiophene-3-yl]-phenyl}-acetamide], for which the “AP-1 inhibition @ 1 uM” value in experiment [1] is 13. Besides, the “NFkB inhibition @ 1 uM” value in experiment [2] is 35. Further, the “% Protection P” value in experiment [3] (setting [5]) worked out at 52%.
For the molecule `Cc1cccc(-n2c(-c3cc(-c4ccncc4)c(N4CCOCC4)s3)nc3ccccc3c2=O)c1` [Example 289, 2-(5-Morpholin-4-yl-4-pyridin-4-yl-thiophen-2-yl)-3-m-tolyl-3H-quinazolin-4-one], the values for the inhibition at 1 µM in experiment [1] and in experiment [2] were 35% and 42%, respectively. In addition, in experiment [3] (setting [4]), the inhibition in vivo at 50 mg/kg was 30%.
The corresponding values for `COc1ccccc1-n1c(-c2cc(-c3ccc(S(C)(=O)=O)cc3)c(N3CCOCC3)s2)nc2ccccc2c1=O` [Example 297, 2-[4-(4-Methanesulphonyl-phenyl)-5-morpholin-4-yl-thiophen-2-yl]-3-(2-methoxy-phenyl)-3H-quinazolin-4-one] are 33%, 55% and 63%.
The corresponding values for `COc1cccc(-n2c(-c3cc(-c4ccc(S(C)(=O)=O)cc4)c(N4CCOCC4)s3)nc3ccccc3c2=O)c1` [Example 300, 2-[4-(4-Methanesulphonyl-phenyl)-5-morpholin-4-yl-thiophen-2-yl]-3-(3-methoxy-phenyl)-3H-quinazolin-4-one] are -4%, 20% and 48%.
As to `COc1ccc(-n2c(-c3cc(-c4ccc(S(C)(=O)=O)cc4)c(N4CCOCC4)s3)nc3ccccc3c2=O)cc1` [Example 303, 2-[4-(4-Methanesulphonyl-phenyl)-5-morpholin-4-yl-thiophen-2-yl]-3-(4-methoxy-phenyl)-3H-quinazolin-4-one], the inhibition at 1 µM in experiment [1] was 10%; in experiment [2], 60%. The inhibition in vivo at 50 mg/kg in experiment [3] (setting [4]) stood at 53%.
The corresponding values for `O=c1c2ccccc2nc(-c2cc(-c3ccncc3)c(N3CCOCC3)s2)n1-c1ccccc1Cl` [Example 308, 3-(2-Chloro-phenyl)-2-(5-morpholin-4-yl-4-pyridin-4-yl-thiophen-2-yl)-3H-quinazolin-4-one] are 35%, 80% and 43%.
The corresponding values for `O=c1c2ccccc2nc(-c2cc(-c3ccccc3)c(N3CCOCC3)s2)n1-c1ccc(Cl)cc1` [Example 309, 3-(4-Chloro-phenyl)-2-(5-morpholin-4-yl-4-phenyl-thiophen-2-yl)-3H-quinazolin-4-one] are 2%, 0% and 66%.
On the same counts, the results for `O=c1c2ccccc2nc(-c2cc(-c3ccc(Cl)cc3)c(N3CCOCC3)s2)n1-c1ccc(Cl)cc1` [Example 310, 2-[4-(4-Chloro-phenyl)-5-morpholin-4-yl-thiophene-2-yl]-3-(4-chloro-phenyl)-3H-quinazolin-4-one] are 14%, 0% and 60%.
Take `CC(=O)Nc1ccc(-c2cc(-c3nc4ccccc4c(=O)n3-c3ccc(Cl)cc3)sc2N2CCOCC2)cc1` [Example 311]: the “AP-1 inhibition @ 1 uM” value in experiment [1] was found to be 17. Besides, the “NFkB inhibition @ 1 uM” value in experiment [2] is recorded as 0. Further, the “% Protection P” value in experiment [3] (setting [5]) stood at 28%.
Regarding `CS(=O)(=O)c1ccc(-c2cc(-c3nc4ccccc4c(=O)n3-c3ccc(Cl)cc3)sc2N2CCOCC2)cc1` [Example 312, 2-[4-(4-Methanesulphonyl-phenyl)-5-morpholin-4-yl-thiophen-2-yl]-3-(4-chloro-phenyl)-3H-quinazolin-4-one], the inhibition at 1 µM in experiment [1] stood at 7%; in experiment [2], 0%. For the same molecule, the inhibition in vivo at 50 mg/kg in experiment [3] (setting [4]) amounted to 57%.
Turning to `O=c1c2ccccc2nc(-c2cc(-c3ccncc3)c(N3CCOCC3)s2)n1-c1ccc(Cl)cc1` [Example 313, 3-(4-Chloro-phenyl)-2-(5-morpholin-4-yl-4-pyridin-4-yl-thiophen-2-yl)-3H-quinazolin-4-one], the inhibition at 1 µM in experiment [1] came to 32%; in experiment [2] it was 68%. Further, the inhibition in vivo at 50 mg/kg in experiment [3] (setting [4]) stood at 52%.
Consider `CC(=O)c1ccc(-n2c(-c3cc(-c4ccccc4)c(N4CCOCC4)s3)nc3ccccc3c2=O)cc1` [Example 314], for which, in experiment [1], the “AP-1 inhibition @ 1 uM” value was 25. The “NFkB inhibition @ 1 uM” value in experiment [2] is 0. Moreover, the “% Protection P” value in experiment [3] (setting [5]) was 36%.
As to `CC(=O)c1ccc(-c2cc(-c3nc4ccccc4c(=O)n3-c3ccc(Cl)cc3)sc2N2CCOCC2)cc1` [Example 315, 2-[4-(4-Acetyl-phenyl)-5-morpholin-4-yl-thiophene-2-yl]-3-(4-chloro-phenyl)-3H-quinazolin-4-one], the inhibition at 1 µM in experiment [1] worked out at 7%; in experiment [2], 0%. For the same molecule, the inhibition in vivo at 50 mg/kg in experiment [3] (setting [4]) was 51%.
